Source: patent US10208033B2, “β-carboline, dihydro-β-carboline and tetrahydro-β-carboline alkaloid derivatives and preparation methods same and use in aspects of preventing and treating plant viruses, fungicides and insecticides” (NANKAI UNIVERSITY, priority 2013, dated 2019)
Counter-ions that a name gives are not always drawn. Like-named read-outs stand apart in the source and are kept apart here.

What was measured:
Sclerotinia scleotiorum = test: Fungicidal (bactericidal) activity in vitro, PDA colony diameter; type: cell-based; conditions: for inhibition of growth at 50 mg/kg: Sclerotinia, 96 h
cucumber fusarium wilt = test: as above; type: cell-based; conditions: for inhibition of growth at 50 mg/kg: Fusarium, 96 h
Macrophoma kawatsukai = test: as above; type: cell-based
Bipolaria maydis = test: organism not typed; type: cell-based; conditions: for inhibition at 50 mg/kg: read-out: Bactericidal activity (%) Bipolaria maydis; for Bactericidal activity (%) Bipolaria maydis: 50 mg/kg
Botrytis cinerea = test: Fungicidal (bactericidal) activity in vitro, PDA colony diameter; type: cell-based; conditions: for inhibition of growth at 50 mg/kg: Botrytis cinerea, 96 h
Cercospora arachidicola = test: as above; type: cell-based; conditions: for inhibition of growth at 50 mg/kg: Mycosphaerella arachidis, 96 h
Rhizoctonia solani = test: as above; type: cell-based; conditions: for inhibition of growth at 50 mg/kg: Rhizoctonia solani, 96 h
Alternaria solani = test: as above; type: cell-based; conditions: for inhibition of growth at 50 mg/kg: Alternaria solani, 96 h
Phytophthora capsici = test: as above; type: cell-based; conditions: for inhibition of growth at 50 mg/kg: Phytophthora capsici, 96 h
[1] = tested on: Colletotrichum orbiculare; test: as above; type: cell-based; conditions: for inhibition of growth at 50 mg/kg: Colletotrichum orbiculare, 96 h
potato late blight = test: microbe, parasite or virus in culture; type: cell-based; conditions: for inhibition of growth at 50 mg/kg: Phytophthora infestans, 96 h, read-out: Bactericidal activity (%) potato late blight
Rhizoctonia cereali = test: Fungicidal (bactericidal) activity in vitro, PDA colony diameter; type: cell-based; conditions: for inhibition of growth at 50 mg/kg: Rhizoctonia, 96 h
Fusarium graminearumt = test: microbe, parasite or virus in culture; type: cell-based; conditions: for inhibition of growth at 50 mg/kg: Fusarium, 96 h, read-out: Bactericidal activity (%) Fusarium graminearumt; for Bactericidal activity (%) Fusarium graminearumt: 50 mg/kg
Fusarium fujikuroi = test: Fungicidal (bactericidal) activity in vitro, PDA colony diameter; type: cell-based; conditions: for inhibition of growth at 50 mg/kg: Fusarium fujikuroi, 96 h
[2] = tested on: tobacco mosaic virus (TMV); test: Anti-TMV in vivo protective effect; parameters: species or system tobacco mosaic virus (host Nicotiana tabacum L.cv.Xanthi NN); conditions: for inhibition at 100 µg/mL / inhibition at 500 µg/mL: Tobacco mosaic virus, read-out: Relative inhibition rate (%) In vivo protection
[3] = tested on: tobacco mosaic virus (TMV); test: Anti-TMV in vitro effect (half-leaf soaking); type: cell-based, tobacco mosaic virus (host Nicotiana tabacum L.cv.Xanthi NN); conditions: for inhibition at 100 µg/mL / inhibition at 500 µg/mL: Tobacco mosaic virus, read-out: Relative inhibition rate (%) In vitro activity
[4] = tested on: tobacco mosaic virus (TMV); test: Anti-TMV in vivo inactivation; parameters: species or system tobacco mosaic virus (host Nicotiana tabacum L.cv.Xanthi NN); conditions: for inhibition at 100 µg/mL / inhibition at 500 µg/mL: Tobacco mosaic virus, read-out: Relative inhibition rate (%) In vivo inactivation
[5] = tested on: tobacco mosaic virus (TMV); test: Anti-TMV in vivo therapeutic effect; parameters: species or system tobacco mosaic virus (host Nicotiana tabacum L.cv.Xanthi NN); conditions: for inhibition at 100 µg/mL / inhibition at 500 µg/mL: Tobacco mosaic virus, read-out: Relative inhibition rate (%) In vivo therapy
cotton bollworms = test: whole plant or invertebrate; conditions: in vivo
Method: Experimental method of cotton bollworms: feed and drug mixing method: measure 3 mL of prepared solution and add it to about 27 g of newly prepared feed, thereby obtaining needed concentration through dilution by 10 times.

mosquito larvae = test: whole plant or invertebrate; conditions: in vivo
Method: Experimental method of mosquito larvae: culex pipiens pallens, a normal colony raised indoors. Weigh about 5 mg of the compound for test, put it in a penicillin vial, add 5 mL of acetone (or an appropriate solvent), and shake and dissolve it to obtain a 1000 ppm mother solution. Pipette 0.5 mL of the mother solution, add it to a 100 mL beaker filled with 89.9 mL of water, select 10 mosquito larvae at the beginning of the fourth instar, and pour them to a beaker together with 10 mL of feeding solution. The concentration of the drug solution is 5 ppm. […] Use an aqueous solution containing 0.5 mL of test solvent as a blank.

armyworms = type: in vivo; conditions: concentration 600 mg/kg
corn borers = conditions: in vivo

SMILES: N#Cc1c(Cl)c(Cl)c(Cl)c(C#N)c1Cl [Chlorothalonil]
- inhibition of growth at 50 mg/kg (Sclerotinia scleotiorum; 50 mg/kg): < 50%
- inhibition of growth at 50 mg/kg (cucumber fusarium wilt; 50 mg/kg): 100%
- inhibition at 50 mg/kg (Macrophoma kawatsukai; 50 mg/kg): 100%
- inhibition at 50 mg/kg (Bipolaria maydis): 91.3%
- inhibition of growth at 50 mg/kg (Botrytis cinerea): 100%
- inhibition of growth at 50 mg/kg (Cercospora arachidicola; 50 mg/kg): 73.3%
- inhibition of growth at 50 mg/kg (Rhizoctonia solani; 50 mg/kg): 100%
- inhibition of growth at 50 mg/kg (Alternaria solani; 50 mg/kg): 73.3%
- inhibition of growth at 50 mg/kg (Phytophthora capsici; 50 mg/kg): 100%
- inhibition of growth at 50 mg/kg ([1]; 50 mg/kg): 91.3%
- inhibition of growth at 50 mg/kg (potato late blight): 86.4%
- inhibition of growth at 50 mg/kg (Rhizoctonia cereali; 50 mg/kg): 100%
- inhibition of growth at 50 mg/kg (Fusarium graminearumt): < 50%
- inhibition of growth at 50 mg/kg (Fusarium fujikuroi; 50 mg/kg): 100%

SMILES: CNCC(=O)N[C@@H](CO)C(=O)N[C@H]1[C@H](O)[C@@H](O)[C@H](n2ccc(N)nc2=O)O[C@@H]1C(N)=O [Ningnanmycin, reference compound]
- inhibition at 100 µg/mL ([2]; treatment dose 100 μg/mL): 23.1%
- inhibition at 500 µg/mL ([2]; treatment dose 500 μg/mL): 65.4%
- inhibition at 100 µg/mL ([3]; treatment dose 100 μg/mL): 26.8%
- inhibition at 500 µg/mL ([3]; treatment dose 500 μg/mL): 73.3%
- inhibition at 100 µg/mL ([4]; treatment dose 100 μg/mL): 38.4%
- inhibition at 500 µg/mL ([4]; treatment dose 500 μg/mL): 68%
- inhibition at 100 µg/mL ([5]; treatment dose 100 μg/mL): 20%
- inhibition at 500 µg/mL ([5]; treatment dose 500 μg/mL): 54.2%

SMILES: COC(=O)Nc1nc2ccccc2[nH]1 [Carbendazim]
- inhibition of growth at 50 mg/kg (Sclerotinia scleotiorum; 50 mg/kg): 100%
- inhibition of growth at 50 mg/kg (cucumber fusarium wilt; 50 mg/kg): < 50%
- inhibition at 50 mg/kg (Macrophoma kawatsukai; 50 mg/kg): < 50%
- inhibition at 50 mg/kg (Bipolaria maydis): 100%
- inhibition of growth at 50 mg/kg (Botrytis cinerea): < 50%
- inhibition of growth at 50 mg/kg (Cercospora arachidicola; 50 mg/kg): < 50%
- inhibition of growth at 50 mg/kg (Rhizoctonia solani; 50 mg/kg): 100%
- inhibition of growth at 50 mg/kg (Alternaria solani; 50 mg/kg): < 50%
- inhibition of growth at 50 mg/kg (Phytophthora capsici; 50 mg/kg): < 50%
- inhibition of growth at 50 mg/kg ([1]; 50 mg/kg): 100%
- inhibition of growth at 50 mg/kg (potato late blight): 100%
- inhibition of growth at 50 mg/kg (Rhizoctonia cereali; 50 mg/kg): 100%
- inhibition of growth at 50 mg/kg (Fusarium graminearumt): 100%
- inhibition of growth at 50 mg/kg (Fusarium fujikuroi; 50 mg/kg): < 50%

SMILES: COc1cc2c3c(c4cc(OC)c(OC)cc4c2cc1OC)CN1CCC[C@H]1C3.O=C(O)C[C@@H](O)C(=O)O [NK-007, reference compound]
- Relative inhibition rate (%) In vivo protection ([2]; treatment dose 100 μg/mL): 36.2%
- Relative inhibition rate (%) In vivo protection ([2]; treatment dose 500 μg/mL): 67.9%
- Relative inhibition rate (%) In vitro activity ([3]; treatment dose 100 μg/mL): 38.7%
- Relative inhibition rate (%) In vitro activity ([3]; treatment dose 500 μg/mL): 65.4%
- Relative inhibition rate (%) In vivo inactivation ([4]; treatment dose 100 μg/mL): 33.9%
- Relative inhibition rate (%) In vivo inactivation ([4]; treatment dose 500 μg/mL): 65.2%
- Relative inhibition rate (%) In vivo therapy ([5]; treatment dose 100 μg/mL): 34.9%
- Relative inhibition rate (%) In vivo therapy ([5]; treatment dose 500 μg/mL): 67.2%

SMILES: NC(=O)c1ncn([C@@H]2O[C@H](CO)[C@@H](O)[C@H]2O)n1 [Virazole, reference compound]
- inhibition at 100 µg/mL ([2]; treatment dose 100 μg/mL): 16.2%
- inhibition at 500 µg/mL ([2]; treatment dose 500 μg/mL): 37.6%
- inhibition at 100 µg/mL ([3]; treatment dose 100 μg/mL): 15.3%
- inhibition at 500 µg/mL ([3]; treatment dose 500 μg/mL): 39.5%
- inhibition at 100 µg/mL ([4]; treatment dose 100 μg/mL): 12.9%
- inhibition at 500 µg/mL ([4]; treatment dose 500 μg/mL): 36.3%
- inhibition at 100 µg/mL ([5]; treatment dose 100 μg/mL): 11.9%
- inhibition at 500 µg/mL ([5]; treatment dose 500 μg/mL): 35.4%

SMILES: CCOC(=O)[C@@H]1Cc2c([nH]c3ccccc23)[C@H](c2cccnc2)N1 [Ib-11, (1S, 3S)-1-(pyridine-3)-2,3,4,9-tetrahydropyridino [3,4-b] indol-3-ethyl formate]
- Bactericidal activity (%) Sclerotinia scleotiorum (Sclerotinia scleotiorum): 76.0%
- Cotton bollworm Mortality (%) (cotton bollworms): 20%
- Bactericidal activity (%) Cucumber fusarium wilt (cucumber fusarium wilt): 23.8%
- Bactericidal activity (%) Macrophoma kawatsukai (Macrophoma kawatsukai): 35.3%
- Mosquito larvae Mortality (%) (mosquito larvae): 15%
- Bactericidal activity (%) Bipolaria maydis (Bipolaria maydis): 15.8%
- Bactericidal activity (%) Botrytis cinerea (Botrytis cinerea): 40.9%
- Bactericidal activity (%) Cercospora arachidicola (Cercospora arachidicola): 42.9%
- Bactericidal activity (%) Rhizoctonia solani (Rhizoctonia solani): 17.9%
- Bactericidal activity (%) Alternaria solani (Alternaria solani): 55.6%
- Armyworm Mortality (%) (armyworms): 5%
- Bactericidal activity (%) Phytophthora capsici (Phytophthora capsici): 36.4%
- Bactericidal activity (%) Colletotrichum orbiculare [1]: 42.9%
- Corn borer Mortality (%) (corn borers): 5%
- Bactericidal activity (%) potato late blight (potato late blight): 35.0%
- Bactericidal activity (%) Rhizoctonia cereali (Rhizoctonia cereali): 65.6%
- Bactericidal activity (%) Fusarium graminearumt (Fusarium graminearumt): 28.6%
- Bactericidal activity (%) Fusarium fujikuroi (Fusarium fujikuroi): 28.6%

SMILES: O=C(O)[C@@H]1Cc2c([nH]c3ccccc23)[C@H](c2cccnc2)N1 [Ib-6, (1S, 3S)-1-(pyridine-3)-2,3,4,9-tetrahydropyridino [3,4-b] indol-3-formic acid]
- Bactericidal activity (%) Sclerotinia scleotiorum (Sclerotinia scleotiorum; 50 mg/kg): 29.4%
- Cotton bollworm Mortality (%) (cotton bollworms): 20%
- Bactericidal activity (%) Cucumber fusarium wilt (cucumber fusarium wilt; 50 mg/kg): 26.9%
- Bactericidal activity (%) Macrophoma kawatsukai (Macrophoma kawatsukai; 50 mg/kg): 61.9%
- Bactericidal activity (%) Bipolaria maydis (Bipolaria maydis): 36.4%
- Relative inhibition rate (%) In vivo protection ([2]; treatment dose 100 μg/mL): 0%
- Relative inhibition rate (%) In vivo protection ([2]; treatment dose 500 μg/mL): 24.8%
- Bactericidal activity (%) Botrytis cinerea (Botrytis cinerea): 27.3%
- Bactericidal activity (%) Cercospora arachidicola (Cercospora arachidicola; 50 mg/kg): 84.6%
- Bactericidal activity (%) Rhizoctonia solani (Rhizoctonia solani; 50 mg/kg): 32.9%
- Bactericidal activity (%) Alternaria solani (Alternaria solani; 50 mg/kg): 26.3%
- Armyworm Mortality (%) (armyworms): 45%
- Bactericidal activity (%) Phytophthora capsici (Phytophthora capsici; 50 mg/kg): 9.4%
- Bactericidal activity (%) Colletotrichum orbiculare ([1]; 50 mg/kg): 32.1%
- Relative inhibition rate (%) In vitro activity ([3]; treatment dose 100 μg/mL): 0%
- Relative inhibition rate (%) In vitro activity ([3]; treatment dose 500 μg/mL): 25%
- Relative inhibition rate (%) In vivo inactivation ([4]; treatment dose 100 μg/mL): 0%
- Relative inhibition rate (%) In vivo inactivation ([4]; treatment dose 500 μg/mL): 17.5%
- Corn borer Mortality (%) (corn borers): 40%
- Bactericidal activity (%) potato late blight (potato late blight): 27.3%
- Relative inhibition rate (%) In vivo therapy ([5]; treatment dose 100 μg/mL): 0%
- Relative inhibition rate (%) In vivo therapy ([5]; treatment dose 500 μg/mL): 21.4%
- Bactericidal activity (%) Rhizoctonia cereali (Rhizoctonia cereali; 50 mg/kg): 63.2%
- Bactericidal activity (%) Fusarium graminearumt (Fusarium graminearumt): 31.0%
- Bactericidal activity (%) Fusarium fujikuroi (Fusarium fujikuroi; 50 mg/kg): 14.3%
